{"source": "paper PMC7005646", "about": "“Overcoming resistance to anabolic SARM therapy in experimental cancer cachexia with an HDAC inhibitor” (EMBO Molecular Medicine, 2020)", "key": {"C‐26 cells": {"system": "C‐26 cells", "experiment": "Cell viability assay (CCK‐8)", "type": "cell-based, mouse", "conditions": "up to 10 µM, 48 hours", "description": "Cell viability assays were conducted using the CCK‐8 kit (Dojindo Molecular Technologies, Inc; Kumamoto, Japan). Briefly, 1,250 cells per well were plated on 96‐well plates and allowed to adhere overnight."}, "C‐26 tumor‐bearing mice [1]": {"system": "C‐26 tumor‐bearing mice", "experiment": "Combined androgen and AR‐42 study (Study 4), C‐26 model", "type": "in vivo, mouse", "description": "These studies were performed as previously described (Tseng et al, 2015a) with modifications. Tumors were established in the right flank of CD2F1 mice by subcutaneous injection of C‐26 cells (0.5 × 10^6 cells in 0.1 ml). […] TFM‐4AS‐1 (a potent experimental SARM), DHT, and vehicles were administered by subcutaneous injection.\nSimilar to Study 2, the tumor‐free control group was maintained at six animals, whereas 10 animals were included in each of the 6 tumor‐bearing groups. Six days after cell injection, animals with palpable tumors were treated once daily for 13 days with vehicles for AR‐42 and TFM‐4AS‐1/DHT (n = 9), AR‐42 (10 mg/kg; TFM‐4AS‐1/DHT vehicle; n = 10), TFM‐4AS‐1 (10 mg/kg; AR‐42 vehicle; n = 9), DHT (3 mg/kg; AR‐42 vehicle; n = 10), the combination of AR‐42 and TFM‐4AS‐1 (10 mg/kg each; n = 9), or the combination of AR‐42 (10 mg/kg) and DHT (3 mg/kg; n = 10). Grip strength was measured, and tissues were collected as in the previous studies.\nForelimb grip strength was measured using Bio‐GS3 Grip Strength Test Meter (Forceleader DBA Bioseb, Pinellas Park, FL). Each mouse was held by the base of its tail and lowered over the apparatus until its forepaws grasped the metal pull bar. […] The force applied to the bar at the moment of release was recorded as the peak force. […]"}, "pSTAT3 (Y705)": {"system": "pSTAT3 (Y705)", "experiment": "pSTAT3/tSTAT3 Western blot of gastrocnemius muscle", "type": "in vivo, mouse", "description": "Western blots from all studies were performed on gastrocnemius muscle from representative animals lysed by Nonidet P‐40 isotonic lysis buffer [50 mM Tris–HCl, pH 7.5, 120 mM NaCl, 1% (v/v) Nonidet P‐40, 1 mM EDTA, 50 mM NaF, 40 mM glycerophosphate, and […] each of protease inhibitors (aprotinin, pepstatin, and leupeptin)]. Equivalent amounts of protein from each sample, as determined by the Bradford assay (Bio‐Rad), were resolved by SDS–PAGE and then transferred (semi‐dry) onto Immobilon nitrocellulose membranes (Millipore, Bellerica, MA). Membranes were washed twice with TBST [Tris‐buffered saline (TBS) containing 0.1% Tween‐20], blocked with 5% non‐fat milk in TBST for 1 h, and then washed an additional three times. Membranes were incubated with specific primary antibody in TBST (1:1,000) at 4°C overnight, washed three times (TBST), and then incubated with appropriate goat anti‐rabbit or anti‐mouse IgG–horseradish peroxidase‐conjugated secondary antibodies (1:5,000) at room temperature (1 h). Following additional washes (TBST), immunoblots were visualized as appropriate by ECL chemiluminescence (Amersham Biosciences, Little Chalfont, United Kingdom) or Duration HRP Chemiluminescence (Alkali Scientific, Florida, United States). Primary antibodies: phospho‐STAT3 (Tyr705) (D3A7) XP® rabbit mAb #9145, STAT3 (124H6) mouse mAb #9139 (Cell Signaling Technology, Danvers, MA); α‐tubulin (B‐7), sc‐5286 (Santa Cruz Biotechnologies, Santa Cruz, CA); androgen receptor (EP670Y), ab52615 (Abcam, Cambridge, MA) and GAPDH (6C5), sc‐32233 (Santa Cruz Biotechnologies, Santa Cruz, CA)."}, "LLC tumor‐bearing mice": {"system": "LLC tumor‐bearing mice", "experiment": "AR‐42/GTx‐024 combination study in the LLC cachexia model (Study 5)", "type": "in vivo, mouse", "description": "This study was performed as previously described (Tseng et al, 2015a) with modifications. Tumors were established in the right hindlimb of male C57BL/6NHsd mice by intramuscular injection of LLC cells (0.5 × 10^6 cells in 0.05 ml). Similar to Study 3, the tumor‐free control group was maintained at six animals, whereas 12 animals were included in each of the tumor‐bearing groups. […] Grip strength, body weight, and food consumption were measured, and tissues were collected as in the previous C‐26 studies."}, "[2]": {"conditions": "male rats, 0.5 mpk; ref Xenobiotica. 2013 Nov;43(11):993-1009; cited from earlier work"}, "serum cytokines": {"system": "serum cytokines", "experiment": "Serum cytokine panel (multiplex), terminal samples from Study 2", "type": "in vivo, mouse", "conditions": "GTx‐024 15 mg/kg, mean ± SD", "description": "This confirmatory study was performed exactly as Study 1 with expanded animal numbers. Tumor‐free control groups were maintained at 6 animals each, whereas 10 animals were included in each of the tumor‐bearing groups. […] Grip strength was measured on study days 0 (baseline) and 16. Due to rapid model progression, this study was terminated on day 17 after only 12 days of treatment.\nSerum cytokine panel analyses were performed by a commercial vendor (Eve Technologies, Calgary, Canada) as previously described (Tseng et al, 2015a). Serum interleukin‐6 (IL‐6) was measured using a commercial ELISA kit (R&D Systems, Minneapolis, MN, USA) according to the manufacturer's instructions."}, "[3]": {"system": "serum‐luteinizing hormone", "experiment": "Serum luteinizing hormone radioimmunoassay, Study 1", "type": "in vivo, mouse", "conditions": "Study 1, day 18, 15 mg/kg, C‐26 tumor‐bearing mice", "description": "Luteinizing hormone was measured in serum by a two‐site sandwich radioimmunoassay performed by the Ligand Assay and Analysis Core at the Center for Research in Reproduction, University of Virginia School of Medicine (Charlottesville, VA). Serum was isolated by centrifugation (2,000 g, 15 min) from whole blood samples collected from mice immediately post‐mortem, and then stored at −80°C until shipment on dry ice."}, "[4]": {"experiment": "GTx‐024 plasma pharmacokinetics, LLC tumor‐bearing C57BL/6NHsd mice", "type": "in vivo, mouse", "description": "Blood was collected by cardiac puncture into heparinized tubes (BD Microtainer, Becton, Dickinson and Company, Franklin Lakes, NJ, USA) and immediately centrifuged at room temperature for 3 min at 4,200 RCF. Plasma was removed and placed on dry ice prior to storage at −80°C until analysis. Bioanalytical analyses were conducted as previously described (Cheng et al, 2016) by Charles River Laboratories, Inc. (Wilmington, MA, USA). Non‐compartmental analysis was performed using the PKNCA package in R version 3.6.0."}, "C‐26 tumor‐bearing mice [5]": {"system": "C‐26 tumor‐bearing mice", "experiment": "Initial AR‐42/GTx‐024 combination study (Study 1), male C‐26 tumor‐bearing mice", "type": "in vivo, mouse"}, "[6]": {"conditions": "C‐26 Tumor‐bearing, AR‐42 10 mg/kg, or both"}, "[7]": {"conditions": "male, C57BL/6NHsd, mouse, single 15 mg/kg oral dose, plasma"}, "[8]": {"conditions": "Study 1, male, day 18, GTx‐024 15 mg/kg, AR‐42 10 mg/kg, or both"}}, "data": [{"smiles": "C[C@]12CCC(=O)C[C@@H]1CC[C@@H]1[C@@H]2CC[C@]2(C)[C@@H](O)CC[C@@H]12", "note": "[DHT, dihydrotestosterone]", "values": [{"measurement": "direct effects on C‐26 cell viability", "setting": "C‐26 cells", "value": "did not detect direct effects"}, {"measurement": "C‐26 tumor growth", "setting": "C‐26 tumor‐bearing mice [1]; Study 4, DHT alone 3 mg/kg, after 8 days of administration", "value": "tumor growth was significantly suppressed"}]}, {"smiles": "C[C@](O)(COc1ccc(C#N)cc1)C(=O)Nc1ccc(C#N)c(C(F)(F)F)c1", "note": "[GTx‐024, (S)‐N‐(4‐cyano‐3‐(trifluoromethyl)phenyl)‐3‐(4‐cyanophenoxy)‐2‐hydroxy‐2‐methylpropanamide]", "values": [{"measurement": "pSTAT3 in gastrocnemius", "setting": "pSTAT3 (Y705); female C‐26 tumor‐bearing mice, Study 3", "value": "reduced levels of pSTAT3 activation"}, {"measurement": "pSTAT3 in gastrocnemius", "setting": "pSTAT3 (Y705); male C‐26 tumor‐bearing mice, Study 1", "value": "no apparent effect"}, {"measurement": "LLC tumor growth", "setting": "LLC tumor‐bearing mice; Study 5, 15 mg/kg daily oral", "value": "stimulated LLC tumor growth"}, {"measurement": "LLC tumor growth", "setting": "LLC tumor‐bearing mice; repeat of Study 5, 0.5 mg/kg daily oral", "value": "did not promote LLC tumor growth"}, {"measurement": "response of body weight and skeletal muscle mass loss", "setting": "LLC tumor‐bearing mice; repeat of Study 5, 10 mg/kg AR‐42, 0.5 mg/kg GTx‐024, or both", "value": "did not respond"}, {"measurement": "AUCinf", "setting": "[2]", "value": "approximately 4.3 ug*hr/mL"}, {"measurement": "GM‐CSF, serum", "setting": "serum cytokines; [6]", "value": "17.35 ± 4.33", "unit": "pg/mL"}, {"measurement": "G‐CSF, serum", "setting": "serum cytokines; [6]", "value": "2446.63 ± 1625.70", "unit": "pg/mL"}, {"measurement": "IL‐6, serum", "setting": "serum cytokines; [6]", "value": "397.54 ± 341.43", "unit": "pg/mL"}, {"measurement": "IL‐17, serum", "setting": "serum cytokines; [6]", "value": "1.75 ± 1.28", "unit": "pg/mL"}, {"measurement": "IP‐10, serum", "setting": "serum cytokines; [6]", "value": "154.76 ± 17.98", "unit": "pg/mL"}, {"measurement": "KC, serum", "setting": "serum cytokines; [6]", "value": "288.89 ± 154.46", "unit": "pg/mL"}, {"measurement": "LIF, serum", "setting": "serum cytokines; [6]", "value": "45.26 ± 21.57", "unit": "pg/mL"}, {"measurement": "LIX, serum", "setting": "serum cytokines; [6]", "value": "5234.39 ± 4771.34", "unit": "pg/mL"}, {"measurement": "M‐CSF, serum", "setting": "serum cytokines; [6]", "value": "22.23 ± 9.45", "unit": "pg/mL"}, {"measurement": "GM‐CSF, serum", "setting": "serum cytokines; Tumor‐free", "value": "13.27 ± 4.62", "unit": "pg/mL"}, {"measurement": "G‐CSF, serum", "setting": "serum cytokines; Tumor‐free", "value": "338.39 ± 71.70", "unit": "pg/mL"}, {"measurement": "IL‐6, serum", "setting": "serum cytokines; Tumor‐free", "value": "2.45 ± 1.31", "unit": "pg/mL"}, {"measurement": "IL‐17, serum", "setting": "serum cytokines; Tumor‐free", "value": "5.01 ± 1.18", "unit": "pg/mL"}, {"measurement": "IP‐10, serum", "setting": "serum cytokines; Tumor‐free", "value": "145.68 ± 48.83", "unit": "pg/mL"}, {"measurement": "KC, serum", "setting": "serum cytokines; Tumor‐free", "value": "90.02 ± 17.69", "unit": "pg/mL"}, {"measurement": "LIF, serum", "setting": "serum cytokines; Tumor‐free", "value": "2.50 ± 2.34", "unit": "pg/mL"}, {"measurement": "LIX, serum", "setting": "serum cytokines; Tumor‐free", "value": "1316.67 ± 1662.66", "unit": "pg/mL"}, {"measurement": "M‐CSF, serum", "setting": "serum cytokines; Tumor‐free", "value": "27.23 ± 10.09", "unit": "pg/mL"}, {"measurement": "serum‐luteinizing hormone", "setting": "[3]", "value": "suppressed serum‐luteinizing hormone"}, {"measurement": "direct effects on C‐26 cell viability", "setting": "C‐26 cells", "value": "did not detect differences in the direct effects"}, {"measurement": "projected mouse exposure at 0.5 mpk over rat exposure at 0.5 mpk", "setting": "[4]; 28.8 vs 4.3 ug*hr/mL", "value": 6.7, "unit": "fold"}, {"measurement": "exposure projected for 0.5 mg/kg", "setting": "[4]; 30‐fold dose reduction from 15 mg/kg, mouse", "value": "~ 28.8 μg*h/ml"}, {"measurement": "AUC(0-inf)", "setting": "[4]; [7]", "value": 863, "unit": "µg·h/mL"}, {"measurement": "AUC(0-t)", "setting": "[4]; [7]", "value": 721, "unit": "µg·h/mL"}, {"measurement": "Cmax", "setting": "[4]; [7]", "value": 25800, "unit": "ng/mL"}, {"measurement": "half-life", "setting": "[4]; [7]", "value": 18.1, "unit": "h"}, {"measurement": "body weight in tumor‐free controls", "setting": "C‐26 tumor‐bearing mice [5]; Study 1, 15 mg/kg daily oral", "value": "did not cause body weight loss"}, {"measurement": "terminal body weight corrected for tumor mass", "setting": "C‐26 tumor‐bearing mice [5]; Study 1, male, day 18, 13 days daily oral, GTx‐024 15 mg/kg, AR‐42 10 mg/kg, or both", "value": "79.0 ± 11.2 % of tumor‐free controls"}, {"measurement": "terminal gastrocnemius mass", "setting": "C‐26 tumor‐bearing mice [5]; [8]", "value": "84 ± 11.3 % of tumor‐free controls"}, {"measurement": "terminal quadriceps mass", "setting": "C‐26 tumor‐bearing mice [5]; [8]", "value": "80.0 ± 9.1 % of tumor‐free controls"}]}, {"smiles": "CN1C(=O)C=C[C@]2(C)[C@H]3CC[C@]4(C)[C@@H](C(=O)Nc5ccccc5C(F)(F)F)CC[C@H]4[C@@H]3CC[C@@H]12", "note": "[TFM‐4AS‐1]", "values": [{"measurement": "sparing of body weight or mass of gastrocnemius or quadriceps", "setting": "C‐26 tumor‐bearing mice [1]; Study 4, monotherapy 10 mg/kg subcutaneous", "value": "did not spare body weight"}]}]}
